Reference: patent publication US8143393B2, “Substituted 4-amino-pyrrolotriazine derivatives useful for treating hyper-proliferative disorders and diseases associated with angiogenesis” (Bayer HealthCare LLC, priority 2005, dated 2012)

Molecular target: T1, FGFR-1 (Homo sapiens, UniProt P11362)
T1 construct: GST; made in house
Experiment: FGFR-1 TR-FRET biochemical assay
Procedure, shortened: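 FGFR1-GST (5 nM) was incubated with poly GT-biotin (25 nM) and 0.6 uM ATP in HEPES pH 7.5/MgCl2 with 1% DMSO for 1 h at room temperature. Phosphorylation was read by LANCE TR-FRET (Eu-anti-pTyr/SA-APC, 665/615 ratio). Percent inhibition was background-corrected against no-ATP wells, with final compound concentrations of 10 μM–0.128 nM.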

[1] = 0.6 uM ATP, 5 nM FGFR1-GST, bounds given in nM
[2] = upper bound of the bin 'greater than 100 nM but less than 1 μM' (lower bound in E1)

T1 sequence (P11362 22-822): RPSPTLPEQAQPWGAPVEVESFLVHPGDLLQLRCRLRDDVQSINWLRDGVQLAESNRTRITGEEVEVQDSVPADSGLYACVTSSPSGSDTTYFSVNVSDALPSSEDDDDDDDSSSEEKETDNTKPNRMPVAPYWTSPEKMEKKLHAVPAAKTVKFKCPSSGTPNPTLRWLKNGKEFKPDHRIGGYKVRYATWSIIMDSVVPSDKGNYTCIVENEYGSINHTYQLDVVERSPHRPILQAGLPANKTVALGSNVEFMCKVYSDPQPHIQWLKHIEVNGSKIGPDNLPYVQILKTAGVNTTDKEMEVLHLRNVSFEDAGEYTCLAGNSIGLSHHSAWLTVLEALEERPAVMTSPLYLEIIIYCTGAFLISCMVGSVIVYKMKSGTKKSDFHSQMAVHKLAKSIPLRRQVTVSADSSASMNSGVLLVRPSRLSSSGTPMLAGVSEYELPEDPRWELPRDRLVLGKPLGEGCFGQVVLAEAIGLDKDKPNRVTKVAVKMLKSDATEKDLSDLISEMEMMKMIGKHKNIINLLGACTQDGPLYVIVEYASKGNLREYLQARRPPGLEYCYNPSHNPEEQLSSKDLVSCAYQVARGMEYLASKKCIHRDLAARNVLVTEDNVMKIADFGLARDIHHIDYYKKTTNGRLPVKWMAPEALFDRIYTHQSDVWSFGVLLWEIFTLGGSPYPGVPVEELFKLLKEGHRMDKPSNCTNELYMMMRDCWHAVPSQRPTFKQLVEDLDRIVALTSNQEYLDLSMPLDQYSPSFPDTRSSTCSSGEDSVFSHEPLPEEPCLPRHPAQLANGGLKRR

| IC50 [1] | IC50 [2] | Structure (SMILES) |
| --- | --- | --- |
| < 10 nM |  | Nc1ncnn2c(CCCCN3CCOCC3)cc(-c3ccc(NC(=O)Nc4cc(C(F)(F)F)ccc4F)c(F)c3)c12 [Example 224, N-{4-[4-amino-7-(4-morpholin-4-ylbutyl)pyrrolo[2,1-f][1,2,4]triazin-5-yl]-2-fluorophenyl}-N′-[2-fluoro-5-(trifluoromethyl)phenyl]urea] |
| < 10 nM |  | Nc1ncnn2c(CCN3CCCOCC3)cc(-c3ccc(NC(=O)Nc4cc(C(F)(F)F)ccc4F)c(F)c3)c12 [Example 226, N-(4-{4-amino-7-[2-(1,4-oxazepan-4-yl)ethyl]pyrrolo[2,1-f][1,2,4]triazin-5-yl}-2-fluorophenyl)-N′-[2-fluoro-5-(trifluoromethyl)phenyl]urea] |
| < 10 nM |  | CC(C)(C)c1ccnc(NC(=O)Nc2ccc(-c3cc(CCN4CCOCC4)n4ncnc(N)c34)cc2F)c1 [Example 228, N-{4-[4-amino-7-(2-morpholin-4-ylethyl)pyrrolo[2,1-f][1,2,4]triazin-5-yl]-2-fluorophenyl}-N′-(4-tert-butylpyridin-2-yl)urea] |
| 10 to 100 nM |  | Nc1ncnn2c(C3CCN(C(=O)C4CC4)CC3)cc(-c3ccc(NC(=O)Nc4cc(C(F)(F)F)ccc4F)c(Cl)c3)c12 [Example 230, N-(4-{4-amino-7-[1-(cyclopropylcarbonyl)piperidin-4-yl]pyrrolo[2,1-f][1,2,4]triazin-5-yl}-2-chlorophenyl)-N′-[2-fluoro-5-(trifluoromethyl)phenyl]urea] |
| 10 to 100 nM |  | Nc1ncnn2c(C3CCN(C(=O)CN4CCOCC4)CC3)cc(-c3ccc(NC(=O)Nc4cc(C(F)(F)F)ccc4F)c(Cl)c3)c12 [Example 231, N-(4-{4-amino-7-[1-(morpholin-4-ylacetyl)piperidin-4-yl]pyrrolo[2,1-f][1,2,4]triazin-3-yl}-2-chlorophenyl)-N′-[2-fluoro-5-(trifluoromethyl)phenyl]urea] |
| 10 to 100 nM |  | Nc1ncnn2c(C(=O)CO)cc(-c3ccc(NC(=O)Nc4cc(C(F)(F)F)ccc4F)c(F)c3)c12 [Example 234, N-[4-(4-amino-7-glycoloylpyrrolo[2,1-f][1,2,4]triazin-5-yl)-2-fluorophenyl]-N′-[2-fluoro-5-(trifluoromethyl)phenyl]urea] |
| 10 to 100 nM |  | Nc1ncnn2c(C3CCN(C4CC4)CC3)cc(-c3ccc(NC(=O)Nc4cc(C(F)(F)F)ccn4)c(F)c3)c12 [Example 235, N-{4-[4-amino-7-(1-cyclopropylpiperidin-4-yl)pyrrolo[2,1-f][1,2,4]triazin-5-yl]-2-fluorophenyl}-N′-[4-(trifluoromethyl)pyridin-2-yl]urea] |
| < 10 nM |  | Nc1ncnn2c(C3CCN(C(=O)CO)CC3)cc(-c3ccc(NC(=O)Nc4cc(C(F)(F)F)ccn4)c(F)c3)c12 [Example 236, N-{4-[4-amino-7-(1-glycoloylpiperidin-4-yl)pyrrolo[2,1-f][1,2,4]triazin-5-yl]-2-fluorophenyl}-N′-[4-(trifluoromethyl)pyridin-2-yl]urea] |
| < 10 nM |  | CC(=O)N1CCC(c2cc(-c3ccc(NC(=O)Nc4cc(C(F)(F)F)ccn4)c(F)c3)c3c(N)ncnn23)CC1 [Example 237, N-{4-[7-(1-acetylpiperidin-4-yl)-4-aminopyrrolo[2,1-f][1,2,4]triazin-5-yl]-2-fluorophenyl}-N′-[4-(trifluoromethyl)pyridin-2-yl]urea] |
| < 10 nM |  | CN(C)CC(=O)N1CCC(c2cc(-c3ccc(NC(=O)Nc4cc(C(F)(F)F)ccc4F)c(Cl)c3)c3c(N)ncnn23)CC1 [Example 240, N-(4-{4-amino-7-[1-(N,N-dimethylglycyl)piperidin-4-yl]pyrrolo[2,1-f][1,2,4]triazin-5-yl}-2-chlorophenyl)-N′-[2-fluoro-5-(trifluoromethyl)phenyl]urea] |
| < 10 nM |  | COCCN1CCC(c2cc(-c3ccc(NC(=O)Nc4cc(C(F)(F)F)ccc4F)c(Cl)c3)c3c(N)ncnn23)CC1 [Example 241, N-(4-{4-amino-7-[1-(2-methoxyethyl)piperidin-4-yl]pyrrolo[2,1-f][1,2,4]triazin-5-yl}-2-chlorophenyl)-N′-[2-fluoro-5-(trifluoromethyl)phenyl]urea] |
| < 10 nM |  | Nc1ncnn2c(C3CCNCC3)cc(-c3ccc(NC(=O)Nc4cc(C(F)(F)F)ccc4F)cc3)c12 [Example 242, N-[4-(4-amino-7-piperidin-4-ylpyrrolo[2,1-f][1,2,4]triazin-5-yl)phenyl]-N′-[2-fluoro-5-(trifluoromethyl)phenyl]urea] |
| 10 to 100 nM |  | CCOCCN1CCC(c2cc(-c3ccc(NC(=O)Nc4cc(C(F)(F)F)ccc4F)c(Cl)c3)c3c(N)ncnn23)CC1 [Example 243, N-(4-{4-amino-7-[1-(2-ethoxyethyl)piperidin-4-yl]pyrrolo[2,1-f][1,2,4]triazin-5-yl}-2-chlorophenyl)-N′-[2-fluoro-5-(trifluoromethyl)phenyl]urea] |
| 10 to 100 nM |  | Nc1ncnn2c(CCN3CCOCC3)cc(-c3ccc(NC(=O)Nc4cc(C(F)(F)F)ccn4)c(F)c3)c12 [Example 250, 1-{4-[4-amino-7-(2-morpholin-4-ylethyl)pyrrolo[2,1-f][1,2,4]triazin-5-yl]-2-fluorophenyl}-3-[4-(trifluoromethyl)pyridin-2-yl]urea] |
| 10 to 100 nM |  | CC(O)c1cc(-c2ccc(NC(=O)Nc3cc(C(F)(F)F)ccc3F)c(F)c2)c2c(N)ncnn12 (centres unmarked) [Example 252, N-{4-[4-amino-7-(1-hydroxyethyl)pyrrolo[2,1-f][1,2,4]triazin-5-yl]-2-fluorophenyl}-N′-[2-fluoro-5-(trifluoromethyl)phenyl]urea] |
| < 10 nM |  | CC(=O)c1cc(-c2ccc(NC(=O)Nc3cc(C(F)(F)F)ccc3F)c(F)c2)c2c(N)ncnn12 [Example 253, N-[4-(7-acetyl-4-aminopyrrolo[2,1-f][1,2,4]triazin-5-yl)-2-fluorophenyl]-N′-[2-fluoro-5-(trifluoromethyl)phenyl]urea] |
| > 100 nM | < 1000 nM | Nc1ncnn2c(C(O)CO)cc(-c3ccc(NC(=O)Nc4cc(C(F)(F)F)ccc4F)c(F)c3)c12 (centres unmarked) [Example 254, N-{4-[4-amino-7-(1,2-dihydroxyethyl)pyrrolo[2,1-f][1,2,4]triazin-5-yl]-2-fluorophenyl}-N′-[2-fluoro-5-(trifluoromethyl)phenyl]urea] |
| 10 to 100 nM |  | Nc1ncnn2c(C(O)C(O)CO)cc(-c3ccc(NC(=O)Nc4cc(C(F)(F)F)ccc4F)c(F)c3)c12 (centres unmarked) [Example 255, N-{4-[4-amino-7-(1,2,3-trihydroxypropyl)pyrrolo[2,1-f][1,2,4]triazin-5-yl]-2-flourophenyl}-N′-[2-fluoro-5-(trifluoromethyl)phenyl]urea] |
| < 10 nM |  | CC(=O)c1cc(-c2ccc(NC(=O)Nc3cc(C(F)(F)F)ccn3)c(F)c2)c2c(N)ncnn12 [Example 259, N-[4-(7-acetyl-4-aminopyrrolo[2,1-f][1,2,4]triazin-5-yl)-2-fluorophenyl]-N′-[4-(trifluoromethyl)pyridin-2-yl]urea] |
| > 100 nM | < 1000 nM | Nc1ncnn2c(C(=O)COCCN3CCOCC3)cc(-c3ccc(NC(=O)Nc4cc(C(F)(F)F)ccc4F)c(F)c3)c12 [Example 260, N-(4-{4-amino-7-[(2-morpholin-4-ylethoxy)acetyl]pyrrolo[2,1-f][1,2,4]triazin-5-yl}-2-fluorophenyl)-N′-[2-fluoro-5-(trifluoromethyl)phenyl]urea] |
| < 10 nM |  | Nc1ncnn2c(CN3CCOCC3)cc(-c3ccc(NC(=O)Nc4cccc(C(F)(F)F)c4)c(C(F)(F)F)c3)c12 [Example 269, N-[4-[4-amino-7-(morpholin-4-ylmethyl)pyrrolo[2,1-f][1,2,4]triazin-5-yl]-2-(trifluoromethyl)phenyl]-N′-[3-(trifluoromethyl)phenyl]urea] |
| 10 to 100 nM |  | Nc1ncnn2c(-c3cnco3)cc(-c3ccc(NC(=O)Nc4cc(C(F)(F)F)ccn4)c(F)c3)c12 [Example 273, N-{4-[4-amino-7-(1,3-oxazol-5-yl)pyrrolo[2,1-f][1,2,4]triazin-5-yl]-2fluorophenyl}-N′-[4-(trifluoromethyl)pyridin-2-yl]urea] |
| 10 to 100 nM |  | Nc1ncnn2c(CC3CNCCO3)cc(-c3ccc(NC(=O)Nc4cc(C(F)(F)F)ccc4F)c(F)c3)c12 (centres unmarked) [Example 276, N-{4-[4-amino-7-(morpholin-2-ylmethyl)pyrrolo[2,1-f][1,2,4]triazin-5-yl]-2-fluorophenyl}-N′-[2-fluoro-5-(trifluoromethyl)phenyl]urea] |
| 10 to 100 nM |  | Nc1ncnn2c(C(=O)NCC3CNCCO3)cc(-c3ccc(NC(=O)Nc4cc(C(F)(F)F)ccc4F)c(F)c3)c12 (centres unmarked) [Example 283, 4-amino-5-{3-fluoro-4-[({[2-fluoro-5-(trifluoromethyl)-phenyl]amino}carbonyl)amino]phenyl}-N-(morpholin-2-ylmethyl)pyrrolo[2,1-f][1,2,4]triazine-7-carboxamide] |
| 10 to 100 nM |  | COC[C@H]1CCCN1C(=O)c1cc(-c2ccc(NC(=O)Nc3cc(C(F)(F)F)ccc3F)c(F)c2)c2c(N)ncnn12 [Example 284, N-[4-(4-amino-7-{[2-(methoxymethyl)pyrrolidin-1-yl]carbonyl}pyrrolo[2,1-f][1,2,4]triazin-5-yl)-2-fluorophenyl]-N′-[2-fluoro-5-(trifluoromethyl)phenyl]urea] |
| < 10 nM |  | Nc1ncnn2c(CN3CCOCC3)cc(-c3ccc(NC(=O)Nc4cc(C(F)(F)F)cc[n+]4[O-])c(F)c3)c12 [Example 287, N-{4-[4-amino-7-(morpholin-4-ylmethyl)pyrrolo[2,1-f][1,2,4]triazin-5-yl]-2-fluorophenyl}-N′-[1-oxido-4-(trifluoromethyl)pyridin-2-yl]urea] |
| 10 to 100 nM |  | Nc1ncnn2c(C(=O)C3CNCCO3)cc(-c3ccc(NC(=O)Nc4cc(C(F)(F)F)ccc4F)c(F)c3)c12 (centres unmarked) [Example 289, N-{4-[4-amino-7-(morpholin-2-ylcarbonyl)pyrrolo[2,1-f][1,2,4]triazin-5-yl]-2-fluorophenyl}-N′-[2-fluoro-5-(trifluoromethyl)phenyl]urea] |
